Data as given in ChEMBL document CHEMBL1139109, “Further studies on the binding of N1-substituted tryptamines at h5-HT6 receptors” (Bioorg Med Chem Lett, 2007).

Biological target: 5-hydroxytryptamine receptor 6 (Homo sapiens, UniProt P50406)
Test: Displacement of [3H] LSD from human 5HT6 receptor expressed in HEK293 cells
Format: cell-based

5-hydroxytryptamine receptor 6, sequence (P50406 whole entry): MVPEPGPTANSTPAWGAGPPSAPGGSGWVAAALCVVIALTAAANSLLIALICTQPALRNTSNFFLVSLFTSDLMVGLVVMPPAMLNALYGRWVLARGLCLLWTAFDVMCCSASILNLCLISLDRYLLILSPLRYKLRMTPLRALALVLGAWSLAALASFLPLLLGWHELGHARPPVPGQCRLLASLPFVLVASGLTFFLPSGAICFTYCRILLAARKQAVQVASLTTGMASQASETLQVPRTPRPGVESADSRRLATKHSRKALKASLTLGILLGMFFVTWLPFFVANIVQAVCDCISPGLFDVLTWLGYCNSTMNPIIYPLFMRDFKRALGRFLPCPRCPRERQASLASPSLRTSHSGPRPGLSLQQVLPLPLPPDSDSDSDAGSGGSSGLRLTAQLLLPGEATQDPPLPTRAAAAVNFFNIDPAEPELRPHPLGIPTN

| Compound | Ki [nM] |
| --- | --- |
| CCCS(=O)(=O)n1cc(CCN(C)C)c2ccccc21 | 280 |
| COc1ccc(Cn2cc(CCN(C)C)c3ccccc32)cc1 | 132 |
| Nc1ccc(Cn2ccc3ccccc32)cc1 | 8200 |
| COc1ccc(S(=O)(=O)n2cc(CCN(C)C)c3ccccc32)cc1 | 13 |
| CN(C)CCc1cn(S(=O)(=O)c2ccc(C(F)(F)F)cc2)c2ccccc12 | 1.9 |
| CCCCCCCCS(=O)(=O)n1cc(CCN(C)C)c2ccccc21 | 440 |
| CN(C)CCc1cn(S(=O)(=O)C2CCCCC2)c2ccccc12 | 210 |
| CN(C)CCc1cn(Cc2ccc(N)cc2)c2ccccc12 | 44 |
| CN(C)CCc1cn(Cc2ccc(C(F)(F)F)cc2)c2ccccc12 | 445 |
| Cc1ccc(S(=O)(=O)n2cc(CCN(C)C)c3ccccc32)cc1 | 2.5 |
| CN(C)CCc1cn(Cc2ccc(Cl)cc2)c2ccccc12 | 20 |
| CCCCCS(=O)(=O)n1cc(CCN(C)C)c2ccccc21 | 220 |
| Nc1ccc(S(=O)(=O)n2c3c(c4ccccc42)CCCC3)cc1 | 29 |
| CN(C)CC1CCCc2c1c1ccccc1n2S(=O)(=O)c1ccccc1 (stereo not given) | 1.5 |
| CC(C)S(=O)(=O)n1cc(CCN(C)C)c2ccccc21 | 590 |
| Cc1ccc(Cn2cc(CCN(C)C)c3ccccc32)cc1 | 29 |
| Nc1ccc(Cn2c3c(c4ccccc42)CCCC3)cc1 | 6000 |
| CN(C)CCc1cn(S(=O)(=O)c2ccc(Cl)cc2)c2ccccc12 | 94 |
| CCCCS(=O)(=O)n1cc(CCN(C)C)c2ccccc21 | 135 |
| CN(C)CC1CCCc2c1c1ccccc1n2Cc1ccccc1 (stereo not given) | 136 |
